Assay results published in the supplement of paper PMC10307832.

Key:
Assay in all cases: relative viability (nuclei count vs DMSO), 5 days (fraction); higher = more cells survive
[1] = compound: CC1=C(C(=O)N2C=CSC2=N1)CCN3CCC(=C(C4=CC=CC=C4)C5=CC=C(C=C5)F)CC3 + CC(C)C[C@H](NC(=O)[C@H](Cc1ccccc1)NC(=O)c1cnccn1)B(O)O [Bortezomib] (partner 0.002 µM)
Method in brief: (§1)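 For relative viability, nuclei counts in treated wells were divided by those in vehicle wells. Lung cancer cell lines had been pin-tool dosed in 1536-well plates the day after seeding and cultured for 5 days, then fixed and stained in one step (final 0.05% Triton X-100, 1% formaldehyde, 1 ug/ml Hoechst) and imaged at 4×. Doses were one drug alone or a fixed anchor-drug dose plus five library-drug doses (not always all listed) in √10 steps, and values are duplicate-plate medians.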

[2] = compound: CC1=C(C(=O)N2C=CSC2=N1)CCN3CCC(=C(C4=CC=CC=C4)C5=CC=C(C=C5)F)CC3 + CC(=O)Nc1cccc(-n2c(=O)n(C3CC3)c(=O)c3c(Nc4ccc(I)cc4F)n(C)c(=O)c(C)c32)c1 [Trametinib] (partner 0.02 µM)
Method in brief: as §1

[3] = compound: CC1=C(C(=O)N2C=CSC2=N1)CCN3CCC(=C(C4=CC=CC=C4)C5=CC=C(C=C5)F)CC3 + O=C(c1cc(Cc2n[nH]c(=O)c3ccccc23)ccc1F)N1CCN(C(=O)C2CC2)CC1 [Olaparib] (partner 8 µM)
Method in brief: as §1

[4] = compound: CC1=C(C(=O)N2C=CSC2=N1)CCN3CCC(=C(C4=CC=CC=C4)C5=CC=C(C=C5)F)CC3 + CS(=O)(=O)N1CCN(Cc2cc3nc(-c4cccc5[nH]ncc45)nc(N4CCOCC4)c3s2)CC1 [Pictilisib] (partner 1 µM)
Method in brief: as §1

Row | Cell Line | relative viability ([1]; first compound 0.08 µM) | relative viability ([1]; first compound 0.253 µM) | relative viability ([1]; first compound 0.8 µM) | relative viability ([1]; first compound 2.53 µM) | relative viability ([1]; first compound 8 µM) | relative viability ([2]; first compound 0.08 µM) | relative viability ([2]; first compound 0.253 µM) | relative viability ([2]; first compound 0.8 µM) | relative viability ([2]; first compound 2.53 µM) | relative viability ([2]; first compound 8 µM) | relative viability ([3]; first compound 0.08 µM) | relative viability ([3]; first compound 0.253 µM) | relative viability ([3]; first compound 0.8 µM) | relative viability ([3]; first compound 2.53 µM) | relative viability ([3]; first compound 8 µM) | relative viability ([4]; first compound 0.08 µM) | relative viability ([4]; first compound 0.253 µM) | relative viability ([4]; first compound 0.8 µM) | relative viability ([4]; first compound 2.53 µM) | relative viability ([4]; first compound 8 µM)
1 | NCI-H1915 | 1.02 | 0.864 | 1.1 | 0.971 | 0.472 | 0.331 | 0.326 | 0.322 | 0.283 | 0.261 | 0.254 | 0.272 | 0.284 | 0.238 | 0.223 | 1.21 | 1.01 | 0.969 | 1.04 | 0.835
2 | NCI-H1975 | 0.35 | 0.329 | 0.368 | 0.434 | 0.362 | 0.349 | 0.389 | 0.389 | 0.35 | 0.311 | 0.674 | 0.714 | 0.899 | 0.852 | 0.433 | 0.337 | 0.296 | 0.271 | 0.291 | 0.273
3 | NCI-H1993 | 0.834 | – | 0.919 | 1.5 | 0.987 | 0.494 | 0.364 | 0.501 | 0.511 | 0.513 | 1 | 0.944 | 1.01 | 1.3 | 0.838 | 0.755 | – | 0.766 | 0.727 | 0.73
4 | NCI-H2009 | 1.25 | 1.11 | 0.986 | 1.03 | 0.88 | 0.36 | 0.265 | 0.279 | 0.287 | 0.284 | 0.716 | 0.706 | 0.654 | 0.721 | 0.581 | 1.05 | 0.843 | 0.736 | 0.956 | 0.723
5 | NCI-H2023 | 1.2 | 0.905 | 0.917 | 1.08 | 0.736 | 0.592 | 0.478 | 0.588 | 0.617 | 0.452 | 0.563 | 0.454 | 0.509 | 0.607 | 0.394 | 0.257 | 0.239 | 0.238 | 0.263 | 0.28
6 | NCI-H2085 | 1.04 | 1.02 | 1.07 | 1.07 | 0.878 | 0.484 | 0.52 | 0.491 | 0.66 | 0.452 | 0.805 | 0.776 | 0.807 | 0.783 | 0.735 | 0.449 | 0.462 | 0.45 | 0.442 | 0.409
7 | NCI-H2087 | 0.836 | 0.795 | 1.02 | 1.02 | 0.589 | 0.177 | 0.211 | 0.256 | 0.255 | 0.705 | 0.564 | 0.559 | 0.57 | 0.756 | 0.445 | 0.769 | 0.868 | 0.835 | 0.997 | 0.554
8 | NCI-H2126 | 1.24 | 1.07 | 1.15 | 1.22 | 1.08 | 0.591 | 0.514 | 0.58 | 0.607 | 0.466 | 1.07 | 0.855 | 0.975 | 0.968 | 0.695 | 0.493 | 0.509 | 0.477 | 0.516 | 0.579
